# Measurements published in patent publication US7932405B2, “Halogenated ester derivatives of coumarins for the treatment of coagulation disorders” (Aryx Therapeutics, Inc., priority 2007, dated 2011).
# Marks after values point to notes of the source that are not given here.
# How the values were obtained:
# human IKr (hERG) = target: T1, human IKr (hERG) (Homo sapiens, UniProt Q12809); test: Whole-cell patch-clamp recording of IKr in stably transfected HEK-293 cells expressing the hERG gene; assay type: cell-based
# T1 construct: expressed in transfected cells; host or cells: HEK-293, stably transfected
# T1 sequence (Q12809 whole entry): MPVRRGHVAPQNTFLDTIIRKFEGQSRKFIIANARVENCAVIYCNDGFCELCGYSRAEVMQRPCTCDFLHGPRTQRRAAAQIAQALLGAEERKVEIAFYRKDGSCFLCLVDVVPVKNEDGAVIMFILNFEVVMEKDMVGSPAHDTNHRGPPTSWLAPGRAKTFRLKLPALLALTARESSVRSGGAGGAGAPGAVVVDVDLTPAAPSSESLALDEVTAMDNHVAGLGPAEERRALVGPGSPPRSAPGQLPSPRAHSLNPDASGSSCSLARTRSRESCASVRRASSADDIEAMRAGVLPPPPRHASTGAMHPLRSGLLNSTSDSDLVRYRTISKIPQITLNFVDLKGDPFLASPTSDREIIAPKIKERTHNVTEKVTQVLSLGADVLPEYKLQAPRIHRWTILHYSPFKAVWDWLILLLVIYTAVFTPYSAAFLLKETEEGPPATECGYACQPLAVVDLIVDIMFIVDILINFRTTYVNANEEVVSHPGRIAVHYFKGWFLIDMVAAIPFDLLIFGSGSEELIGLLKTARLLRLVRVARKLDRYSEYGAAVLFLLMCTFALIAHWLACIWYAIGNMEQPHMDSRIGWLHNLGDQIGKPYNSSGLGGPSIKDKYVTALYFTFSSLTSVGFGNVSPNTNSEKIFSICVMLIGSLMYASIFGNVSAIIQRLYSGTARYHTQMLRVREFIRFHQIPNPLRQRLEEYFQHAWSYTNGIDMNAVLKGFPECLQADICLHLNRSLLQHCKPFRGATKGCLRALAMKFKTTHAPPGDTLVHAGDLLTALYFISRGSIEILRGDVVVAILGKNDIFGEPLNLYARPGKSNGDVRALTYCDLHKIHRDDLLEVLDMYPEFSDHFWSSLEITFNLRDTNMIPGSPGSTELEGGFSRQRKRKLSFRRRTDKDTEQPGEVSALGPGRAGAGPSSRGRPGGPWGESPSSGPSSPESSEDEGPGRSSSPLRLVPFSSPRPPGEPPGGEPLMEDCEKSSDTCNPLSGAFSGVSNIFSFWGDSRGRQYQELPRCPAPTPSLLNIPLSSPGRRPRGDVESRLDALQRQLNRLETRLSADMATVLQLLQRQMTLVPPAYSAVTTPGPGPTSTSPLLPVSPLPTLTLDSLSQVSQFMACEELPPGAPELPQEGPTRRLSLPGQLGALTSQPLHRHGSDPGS
# Procedure: Electrophysiological recordings of IKr in stably transfected HEK-293 cells were made in the whole cell configuration of the patch-clamp technique (Hamill et al, 1981) using an Axopatch 200B amplifier (Axon Instruments, Foster City, Calif.). Patch microelectrodes were pulled from 1.5-mm borosilicate glass tubing using a two-stage vertical pipette puller (Narishige, East Meadow, N.Y.). […] HEK-293 cells were plated in 35 mm plastic cell and tissue culture dishes for 2-3 days. For application of drug-containing solutions to cells, the SF-77B system (Warner Instrument Corp, Hamden, Conn.) was used. Solution exchanges were completed within 20 ms. Current data were digitized online using a DigiData 1200A analog-to-digital board (Axon Instruments) and stored on the hard disc of an IBM compatible Pentium computer (GP7-600 MHz, Gateway Computer, Sioux City, N. Dak.). […]
# The effect of warfarin, 2,2,2-trifluoro-1-methyl-1-(trifluoromethyl)ethyl 4-[(4-hydroxy-2-oxo-2H-chromen-3-yl)methyl]benzoate and its corresponding acid metabolite, 4-[(4-hydroxy-2-oxo-2H-chromen-3-yl)methyl]benzoic acid on IKr was studied in a stably transfected HEK-293 cell line using a two-pulse protocol. […] Tail IKr amplitude was measured as the difference between the peak current and baseline current at −50 mV in control and in the presence of ATI-compounds when steady-state block was obtained.
# [1] = Broad cellular and biochemical receptor screening assay; details: concentrations up to 10 μM
# [2] = target: T2, vitamin K epoxide reductase (VKER) (Bos taurus, UniProt Q6B4J2); test: Vitamin K epoxide reductase inhibition, bovine liver microsomal preparation, residual vitamin K epoxide by HPLC; assay type: biochemical
# T2 construct: Microsomes were prepared from fresh cow liver; from tissue; host or cells: fresh cow liver microsomes
# T2 sequence (Q6B4J2 1-163): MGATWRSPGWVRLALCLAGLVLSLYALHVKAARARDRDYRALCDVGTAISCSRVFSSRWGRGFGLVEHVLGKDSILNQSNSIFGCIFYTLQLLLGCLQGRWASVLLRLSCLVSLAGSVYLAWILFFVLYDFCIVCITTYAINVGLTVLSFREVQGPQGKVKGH
# Procedure: Compounds of the subject invention were tested against vitamin K epoxide reductase.
# Briefly: increasing concentrations of compounds were incubated in the presence of vitamin K epoxide and in the presence of a bovine microsomal preparation containing vitamin K epoxide reductase. The amount of residual vitamin K epoxide at the end of the incubation period was directly proportional to the inhibitory activity of the test compounds on the enzyme.
# Microsomes were prepared from fresh cow liver according to the method described in: “Purification of gamma-glutamyl carboxylase from bovine liver. Wu S M, Mutucumarana V P, and Stafford D W. Methods in Enzymology (1997) 282:346-57.”
# Serial dilutions of test compounds were prepared as follows: Dissolve the test compounds to a final dilution of 10 mM either in water or in DMSO (if not soluble in water). From this mother solution, prepare 2 further dilutions by diluting it with water: one 200 μM solution and one 5 mM solution. Prepare a series of tubes as follows:
# Remove 15 μL from tube 4 and add to tube 5, vortex, then remove 15 μL from tube 5 and add to tube 6, vortex, etc. . . . until 15 μL is added to tube 9. Vortex and then remove 15 μL from tube 9.
# Prepare another set of 4 tubes and add 30 μL of water.
# A reaction mixture consisting of 600 μL buffer (2.5M NaCl, 0.125M MOPS, pH7.5), 520 μL water, and 150 μL of 10% CHAPS was prepared. The tubes were kept on ice for 5 minutes and then 500 μL of microsomal preparation was added. The mixture was mixed by vortex and kept on ice for 10 min for sufficient solubilization. To this was added 150 μL of vitamin K epoxide solution (1.5 mg/ml in isopropanol), then again vortexed and kept on ice for 5 minutes. An aliquot (70 μL) of this reaction mix was added to each one of the series of tubes prepared as above and containing serial dilutions of test compounds in 30 μL of water. The tubes were then vortexed and then kept on ice for 5 min. To 2 of the water-containing tubes was added 500 μL of a stop reagent consisting of 5 volumes of 50 mM AgNO3 and 5 volumes of isopropanol. These 2 tubes were used to measure a zero value.
# The tubes were placed in a 30 C mixer for 3 min and 5 μL of 100 mM DTT solution in water was added. The tubes were then vortexed and kept in the dark without shaking for another 20 min, at the end of which 500 μL of the stop reagent was added.
# To each tube was then added 600 μL of a 100 μg/ml solution of vitamin E in hexane, the tubes were capped and then vortexed for 1 minute. The tubes were then centrifuged for 5 min at 5,000 g, and the upper layer (the hexane layer) was transferred to a series of fresh tubes. The hexane was evaporated at room temperature in the dark using a speedvac, and the resulting pellet was resuspended in 100 μL of methanol.
# The amount of vitamin K epoxide in each sample was then measured using a HPLC determination method. Residual vitamin K epoxide was then plotted against test compound concentration.
# [3] = system: pooled human liver microsomes (CYP450 + esterase); test: Metabolism in pooled human liver microsomes with NADPH (CYP450 + esterase); assay type: in vitro ADME; details: 2 μM final concentration
# [4] = system: pooled human liver microsomes (esterase); test: Metabolism in pooled human liver microsomes without NADPH (esterase alone); assay type: in vitro ADME; details: 2 μM final concentration
# Procedure: (§1) Pooled human liver microsomes were used as an in vitro model of drug metabolism. These microsomes contain both esterase and CYP450 drug metabolizing enzymes. Pooled human microsomes were suspended in Tris buffer (50 mM, pH 7.4) at a final concentration of 1 mg/mL of microsomal protein. Test compounds dissolved in acetonitrile:DMSO (1:99) were added to a final concentration of 2 μM. Incubations were performed at 37° C. and samples (50 μL) were collected after 5, 15, 30, 60 and 90 minutes and then were precipitated by the addition of 100 μL of acetonitrile containing Internal Standard and centrifuged at 14,000 rpm for 15 min at 4° C. Samples were analyzed by LC/MS/MS for the content of parent drug.
# (§2) To determine the role of CYP450 in the metabolism, incubations were run either with or without an NADPH regenerating system−NADPH is an obligate cofactor for CYP450 enzymes. Incubations that included NADPH cofactor represent the total metabolism by CYP450+ esterase. […] Thus, when the relative decline of parent drug observed is greater in the presence of NADPH, the metabolism is CYP450-mediated. When the relative decline is equivalent in the presence and absence of cofactor the metabolism is esterase mediated.
# [5] = Control incubation without microsomes (buffer stability); assay type: physicochemical; details: 2 μM final concentration, no microsomes; for half-life at 2 μM: buffer without microsomes (control incubation), pH 7.4, read-out: Buffer Est T½
# Procedure: as §1, with “Pooled human microsomes were suspended in Tris buffer (50 mM, pH 7.4) at a final concentration of 1 mg/mL of microsomal protein.” left out
# All of the compounds were stable.
# [6] = Metabolism in pooled human liver microsomes with NADPH (CYP450 + esterase); assay type: in vitro ADME; details: human, pooled human liver microsomes with NADPH regenerating system, pH 7.4, 2 μM final concentration, read-out: CYP + Esterase Est T½
# [7] = Metabolism in pooled human liver microsomes without NADPH (esterase alone); assay type: in vitro ADME; details: human, pooled human liver microsomes without NADPH, pH 7.4, 2 μM final concentration, read-out: Esterase Est T½
# Procedure: as §1, §2
smiles,measurement,setting,value
"CC(OC(=O)c1ccc(Cc2c(O)c3ccccc3oc2=O)cc1)(C(F)(F)F)C(F)(F)F [2,2,2-trifluoro-1-methyl-1-(trifluoromethyl)ethyl 4-[(4-hydroxy-2-oxo-2H-chromen-3-yl)methyl]benzoate]",IC50,human IKr (hERG),> 100 µM
same,activity in broad cellular and biochemical receptor screening,[1],Nor did either compound exhibit significant activity
CC(OC(=O)c1ccc(Cc2c(O)c3ccccc3oc2=O)cc1)C(F)(F)C(F)(F)F (stereo not shown) [drawing 31],IC50,[2],4.02 µM
same,CYP + Esterase Est T½,[3],> 1.5 h
same,CYP + Esterase % Stability at 90 min,[3],70%
same,Esterase Est T½,[4],> 1.5 h
same,Esterase % Stability at 90 min,[4],86%
same,Buffer % Stability at 90 min,[5],123%
same,half-life at 2 μM,[5],> 1.5 h
CC(OC(=O)c1ccc(Cc2c(O)c3ccccc3oc2=O)cc1)C(F)(F)C(F)(F)F (stereo not shown) [drawing 32],IC50,[2],4.15 µM
same,CYP + Esterase Est T½,[3],~0.5 h
same,CYP + Esterase % Stability at 90 min,[3],24%
same,Esterase Est T½,[4],~0.5 h
same,Esterase % Stability at 90 min,[4],27%
same,Buffer % Stability at 90 min,[5],113%
O=C(O)c1ccc(Cc2c(O)c3ccccc3oc2=O)cc1 [drawing 28],IC50,[2],> 30 µM
same,half-life at 2 μM,[6],> 1.5 h
same,CYP + Esterase % Stability at 90 min,[3],101%
same,Buffer % Stability at 90 min,[5],99%
same,half-life at 2 μM,[5],> 1.5 h
O=C(O)c1ccc(Cc2c(O)c3ccccc3oc2=O)cc1 [4-[(4-hydroxy-2-oxo-2H-chromen-3-yl)methyl]benzoic acid],IC50,human IKr (hERG),> 1000 µM
same,activity in broad cellular and biochemical receptor screening,[1],Nor did either compound exhibit significant activity
"CC(=O)CC(c1ccccc1)c1c(O)c2ccccc2oc1=O (stereo not shown) [Warfarin, reference compound]",IC50,[2],3 ± 0.8 µM
CC(OC(=O)c1ccc(Cc2c(O)c3ccccc3oc2=O)cc1)(C(F)(F)F)C(F)(F)F [drawing 30],IC50,[2],5.07 µM
same,half-life at 2 μM,[6],> 1.5 h
same,CYP + Esterase % Stability at 90 min,[3],90%** (>90 min)
same,half-life at 2 μM,[7],> 1.5 h
same,Esterase % Stability at 90 min,[4],96%
same,Buffer % Stability at 90 min,[5],92%
same,half-life at 2 μM,[5],> 1.5 h
CC(OC(=O)c1ccc(Cc2c(O)c3ccccc3oc2=O)cc1)C(F)(F)C(F)(F)F (racemic),IC50,[2],3.38 µM
same,half-life at 2 μM,[6],> 1.5 h
same,CYP + Esterase % Stability at 90 min,[3],69%
same,half-life at 2 μM,[7],> 1.5 h
same,Esterase % Stability at 90 min,[4],70%
same,Buffer % Stability at 90 min,[5],108%
same,half-life at 2 μM,[5],> 1.5 h
